US20110033883A1, “IMAGING DYES AND USE THEREOF” (priority 2007, published 2011)
Ahx = NCCCCCC(=O)O

What was measured:
[1] = pH titration, ground-state pKa (UV/vis absorption, Henderson-Hasselbalch fit); format: physicochemical; conditions: absorption at 350 nm vs pH, modified Henderson-Hasselbalch fit
Description: ^1H NMR spectra were recorded on a Bruker Advance series 400 MHz NMR spectrometer. The NMR titration experiments were performed following a previously published protocol (Charbonnier and Penades). Mass spectra were acquired using a positive ion mode on a Bruker LC/MS Esquire. Electronic absorption spectra were measured on a Shimadzu 3500 UV-VIS/NIR spectrophotometer. Cyclic voltammetry was carried out using a CH Instruments CH602 electrochemical workstation. A conventional three-electrode cell was used, employing glassy carbon as working, Ag/AgCl as reference or Ag/AgNO3 in acetonitrile, and Pt wire as counter electrodes. Electrochemistry was conducted in water and acetonitrile respectively with 0.1 M phosphate buffer or tetrabutylammonium tetrafluoroborate (TBABF4) as supporting electrolyte under an N2 atmosphere. pH titrations were performed in the pH range 0.5-12. The pH was adjusted by adding aqueous solutions of NaOH or HClO4.
The pH was adjusted with H2SO4 (Sigma-Aldrich) and KOH (Sigma-Aldrich) and measured with a pH meter. UV/vis absorption spectra during the pH titration experiment were corrected for change in volume.
UV/vis absorption titration curves were fitted with a modified Henderson-Hasselbalch equation which was obtained using Beer-Lambert's law to express the concentration, FIG. 2(b) For fitting the fluorescence titration curve it was assumed that the average lifetime goes linear with the ratio of the two species in equilibrium at the certain pH.
At a shorter wavelength the ππ* transitions centred at the ligands are found: around 350 nm the ππ* transition at the pic ligand, and around 280 nm at the bipyridine ligands. […] The increasing absorption with increasing pH at 350 nm is plotted in FIG. 13B. Fitting this curve with a modified Henderson-Hasselbalch equation results in a pKa1 of 1.72±0.07 and pKa2 of 8.16±0.03. As expected the pH dependence of the other bands is rather minor.

[2] = system: human blood platelets; experiment: Fluorescence microscopy of human blood platelets incubated with dye conjugates; format: cell-based
Description: Human Blood Platelets were supplied by Niamh Moran and Dermot Kenny and prepared as described Moran et al.
Fluorescence microscopy was performed on human blood platelets incubated in the presence of Ru-Ahx-R5 and Ru-Ahx-R8. […] The process is largely irreversible, removing and washing cells, and resuspending in buffer results in less than 20% loss of emission intensity from the cell. The fluorescence microscopy pictures show intense, long-lived luminescence originating from the platelet; the wavelength of which (around 620 nm) can be assigned to the Ruthenium centres.

[3] = system: Sp2/0-Ag 14 myeloma cells; experiment: Confocal luminescence imaging, incorporation and localization in myeloma cells (DiOC6(3) counterstain); format: cell-based, mouse
Description: Sp2/0-Ag 14 myeloma cells (ATCC number CRL-1581™) were obtained from the ATCC Cell Biology Collection (United Kingdom). Cells were grown in Dulbecco's modified Eagle's medium (Sigma-Aldrich) supplemented with 10% foetal calf serum (Gibco Invitrogen) and 1% L-glutamine (Gibco Invitrogen) at 37° C. and 5% CO2. Cells were harvested after growing for 2 days. The viability was ensured by testing them in a trypan blue assay. In a usual sample less than 1% of the cells were dead. The growth medium was removed by centrifuging the cells at 2000 rpm for 2 min in an Eppendorff centrifuge, washed twice and resuspended in PBS buffer.
To identify where the Ru dye [Ru(bpy)2(PIC-arg8)]^2+ is localizing inside the cell, cells were counterstained with two commercial dyes. Sytox green (Invitrogen) which localizes inside the nucleus; and DiOC6(3) (3,3′-dihexyloxacarbocyanine iodide, Invitrogen) which selectively stains mitochondria and at higher concentration other internal membranes, such as the endoplasmatic reticulum, of living cells. Both dyes can be excited with the 458 nm line of an argon ion laser used for excitation of the [Ru(bpy)2(pic-R8)]^n+ dye, however, their fluorescence is in the green (around 500 nm), and therefore could be easily spectrally separated from the fluorescence of the Ru complex. […]
For the fluorescence and fluorescence lifetime experiments 100 μl aliquots of washed myeloma cells were resuspended in PBS buffer (pH 7.4) and incubated with the 3 μl of the Ru-octopeptide (1.2 mM), resulting in a final dye concentration of 3.5×10^−5 M.
The luminescence images of myeloma cells were recorded with a Zeiss LSM510 Meta confocal microscope, using a 63× oil immersion objective (NA 1.4). […] The luminescence from the Ru complexes was collected using a longpass filter at 560 nm. When Sytox green and/or DiOC6(3) were localised in the same cell, the luminescence from the Ru-dye was collected behind a 615 nm longpass filter, while the Sytox green and DiOC6(3) fluorescence was collected with a 465-510 nm bandpass filter in another channel, or by using the meta option of the instrument.

[4] = system: human blood platelets; experiment: Photobleaching under continuous irradiation at 458 nm of dye-labelled human blood platelets; format: cell-based; conditions: identical conditions
Excerpt: Some of the advantages associated with the invention may include: • The dye conjugates described are long-lived and environmentally sensitive. The sensitivity of the dye conjugates can be tailored, e.g. to oxygen partial pressure, pH, water content etc., by altering the ligands and/or the metal ion of the dye conjugate. • Photobleaching: bleaching experiments, for example the data presented in FIG. 10, are a measure of the photostability of the dye conjugate under the types of continuous irradiation required for imaging. […] For example a ruthenium-polypyridyl complex covalently bound to an octa arginine peptide required approximately 20 minutes continuous irradiation for the dye to bleach to 50% of its initial intensity. […] The dye conjugates described herein provide a much greater acquisition time which is a significant advantage to the microscopist/microbiologist. • The synthetic yields for coupling of the Rupic unit to amine functionalities are high. The dye conjugates are functionalised with a single, accessible group, allowing unequivocal reaction with nucleophilic functions on peptides or proteins. […] The dye conjugates are easily synthetically modified to change colour, lifetime, and environmental sensitivity and are highly resistant to photobleaching.
FIG. 10 is a graph showing a photobleaching experiment. […]

With “[Ru(bpy)2(PicH-R8)]^n+: ruthenium centre with two bipyridine ligands and one picH ligand; octaarginine coupled to pic carboxy end via Ahx spacer, amide linkage ({(Ru(bpy)2(picH))-Ahx}-RRRRRRRR-NH2; also: Ru(bpy)2 picH ruthenium complex attached via Ahx spacer)” the pKa1 [1] was 1.72±0.07, the pKa2 [1] was 8.16±0.03 and the “loss of emission intensity from the cell after removing, washing and resuspending in buffer” value [2] was “less than 20%”. The “transport across the platelet membrane” value ([2]; fluorescence microscopy) was “transported through the cells membrane to accumulate intracellularly”, the “incubation time after which dye localises in the nucleus” value [3] was greater than 40 min and the “time until penetration into the cells is complete” value ([3]; 3.5×10^−5 M dye) was 15 to 20 min. For the same substance, the “preference for mitochondria (DiOC6(3) counterstain)” value ([3]; 20 mins incubation) was “no special preferences for mitochondria” and the “continuous irradiation time for the dye to bleach to 50% of its initial intensity” value [4] was “approximately 20 minutes”.
